# Values quoted from earlier work as cited in patent US20230270735A1, “TOPICAL FORMULATION” (INCANTHERA (R&D) LTD, priority 2020, published 2023).
# Where two headings read alike, the source gives them in different places.
# Experiments:
# [1] = not given; remark: listed apart in the source
# PARP-1 = PARP-1 (Homo sapiens, UniProt P09874); settings: at a concentration of 50 μmol L^−1, in vitro
# actinic keratoses (AK) = settings: 4 months
# Sequence of PARP-1 (P09874 whole entry, species assumed): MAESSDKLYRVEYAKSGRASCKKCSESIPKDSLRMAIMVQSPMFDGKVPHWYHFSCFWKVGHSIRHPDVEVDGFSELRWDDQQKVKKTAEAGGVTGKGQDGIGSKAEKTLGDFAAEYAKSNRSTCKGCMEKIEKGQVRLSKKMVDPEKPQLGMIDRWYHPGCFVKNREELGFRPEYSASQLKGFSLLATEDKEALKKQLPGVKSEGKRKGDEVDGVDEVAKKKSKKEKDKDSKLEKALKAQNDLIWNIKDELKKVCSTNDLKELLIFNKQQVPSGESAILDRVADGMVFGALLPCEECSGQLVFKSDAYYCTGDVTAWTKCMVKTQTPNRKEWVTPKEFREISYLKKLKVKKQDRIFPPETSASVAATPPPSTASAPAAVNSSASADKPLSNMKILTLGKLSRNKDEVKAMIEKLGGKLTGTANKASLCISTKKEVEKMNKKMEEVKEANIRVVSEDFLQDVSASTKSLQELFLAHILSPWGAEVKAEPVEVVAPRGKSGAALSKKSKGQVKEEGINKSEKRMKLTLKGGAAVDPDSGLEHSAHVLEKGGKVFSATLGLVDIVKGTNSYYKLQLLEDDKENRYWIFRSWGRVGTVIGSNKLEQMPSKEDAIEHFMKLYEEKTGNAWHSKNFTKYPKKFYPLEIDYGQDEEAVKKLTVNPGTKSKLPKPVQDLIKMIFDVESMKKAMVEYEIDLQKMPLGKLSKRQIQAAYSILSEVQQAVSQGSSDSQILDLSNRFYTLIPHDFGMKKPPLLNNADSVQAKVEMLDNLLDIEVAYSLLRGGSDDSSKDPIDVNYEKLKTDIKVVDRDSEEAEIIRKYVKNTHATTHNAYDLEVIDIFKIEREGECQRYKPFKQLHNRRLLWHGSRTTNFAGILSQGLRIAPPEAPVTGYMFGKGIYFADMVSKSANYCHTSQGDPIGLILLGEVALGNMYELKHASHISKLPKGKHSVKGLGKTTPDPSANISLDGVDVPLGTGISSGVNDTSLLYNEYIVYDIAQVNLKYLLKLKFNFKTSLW
smiles,measurement,setting,value
"NC(=O)c1cccnc1 [NAM, pyridine-3-carboxamide]",range of peak plasma concentrations,"1 g (~0.5 g/M^2) oral dose, healthy volunteers",81 to 158 µmol/L
same,peak plasma concentrations,"oral 500 mg, extrapolated by Malesu et al. (22) from Stratford data",~80 µmol/L
same,Log P (octanol/water),[1],−0.4
same,inhibition of PARP-1,PARP-1,60%
same,rate of new nonmelanoma skin cancers lowered compared with placebo,"nonmelanoma skin cancers; oral 500 mg twice a day, 12 months",23%
same,"CD4^+ helper T cells and cytotoxic CD8^+ T cells in the tumour microenvironment of melanomas, compared with placebo",nonmelanoma skin cancers; oral NAM group,significant increase
same,systemic adverse effects,"nonmelanoma skin cancers; oral doses 500-1,000 mg/day",without significant systemic adverse effects
same,reduction in AK versus baseline,"actinic keratoses (AK); study 1, oral 500 mg twice daily",35%
same,reduction in AK versus baseline,"actinic keratoses (AK); study 2, oral 500 mg once daily",29%
